This is an account of results in publication PMC10298979, “Assessments of Alpha-Amylase Inhibitory Potential of Tagetes Flavonoids through In Vitro, Molecular Docking, and Molecular Dynamics Simulation Studies” (International Journal of Molecular Sciences, 2023).

For one series, the target named is alpha-amylase. Nature of the series: in vitro alpha-amylase inhibition (AAI) assay, Ultra-Amylase EnzChek Assay Kit. It is filed as biochemical. An excerpt: The AAI capacity of T. minuta flavonoids was estimated using an Ultra-Amylase®Enz-Chek Assay Kit in line with a formerly reported method.
On the set-up of series [1]: method as in PMID 24599122, PMID 16168446. To be noted: cited from earlier work; for IC50 for DPPH: radical scavenging.
The conditions of series [2]: no reference given; cited from earlier work.
On the set-up of series [3]: method as in PMID 24599122, PMID 16168446. The note with it: cited from earlier work.
For series [4], the system named is PE (phenylephrine)-precontracted thoracic aortic rings. Details: method as in PMID 23763258. The note with it: PE-precontracted thoracic aortic rings in rats; cited from earlier work.

`COc1c(-c2ccc(O)c(O)c2)oc2c(O)c(O)c(O[C@@H]3O[C@H](CO)[C@@H](O)[C@H](O)[C@H]3O)c(O)c2c1=O` [Compound 7, tagenol B]: on alpha-amylase, the 50% inhibitory concentration (IC50) was 10.8 µM. As for `COc1c(OC2OC(CO)C(O)C(O)C2O)cc2oc(-c3ccc(O)c(O)c3)c(O)c(=O)c2c1O` [Compound 5, patuletin-7-O-β-D-glucopyranoside], the “IC50 for DPPH” value in series [1] is 12.1 µg/mL. At alpha-amylase, this molecule gave a half-maximal inhibitory concentration (IC50) of 8.1 µM. In the case of `COc1c(O)cc2oc(-c3ccc(O)c(O)c3)c(OC)c(=O)c2c1O` [Compound 11, quercetin-3,6-dimethyl ether], the IC50 at alpha-amylase came out at 21.7 µM. Molecule `COc1cc2oc(-c3ccc(O)c(O)c3)c(O)c(=O)c2c(O)c1O[C@@H]1O[C@H](CO)[C@@H](O)[C@H](O)[C@H]1O` [Compound 6, quercetagetin-7-methoxy-6-O-β-D-glucopyranoside] came in with an IC50 on alpha-amylase of 9.7 µM.

`C[C@H]1O[C@H](O[C@H]2[C@H](O)[C@@H](O)[C@@H](O[C@H]3[C@H](O)[C@@H](O)C(O)O[C@@H]3CO)O[C@@H]2CO)[C@H](O)[C@@H](O)[C@@H]1N[C@H]1C=C(CO)[C@@H](O)[C@H](O)[C@H]1O` (stereo partly shown) [Acarbose]: in series [2], the “oral dose absorbed into the bloodstream” value is 2% and the “oral dose eliminated through fecal excretion” value is “approximately 51%”. As for `COc1ccc(-c2oc3c(O)c(O)c(OC)c(O)c3c(=O)c2OC)cc1O` [Compound 12, tagenol A], the IC50 at alpha-amylase amounted to 14.9 µM. Take `O=c1c(O)c(-c2ccc(O)c(O)c2)oc2cc(OC3OC(CO)C(O)C(O)C3O)c(O)c(O)c12` [Compound 2, quercetagetin-7-O-β-D-glucopyranoside]: the “%inhibition for superoxide anion” value in series [3] is 82.85%. For the same molecule, in series [4], the vasorelaxation result was “vasorelaxation potential”. For the same molecule, the “IC50 for DPPH” value in series [1] is 3.92 µg/mL. At alpha-amylase, this molecule yielded an IC50 of 7.8 µM. On to `COc1cc2oc(-c3ccc(O)c(O)c3)c(OC)c(=O)c2c(O)c1O[C@@H]1O[C@H](CO)[C@@H](O)[C@H](O)[C@H]1O` [Compound 9, quercetagetin-3,7-dimethoxy-6-O-β-D-glucopyranoside], for which the half-maximal inhibitory concentration (IC50) against alpha-amylase was determined as 12.7 µM. For the molecule `COc1c(-c2ccc(O)c(O)c2)oc2cc(O)cc(O)c2c1=O` [Compound 10, quercetin-3-methyl ether], it took 26.9 µM to reach half-maximal inhibition against alpha-amylase (IC50). The same measure, in the same setting: for `COc1c(O)cc2oc(-c3ccc(O)c(O)c3)c(O)c(=O)c2c1O` [Compound 8, patuletin] the value was 13.6 µM; for `O=c1c(O)c(-c2ccc(O)c(O)c2)oc2cc(O)c(OC3OC(CO)C(O)C(O)C3O)c(O)c12` [Compound 3, quercetagetin-6-O-β-D-glucopyranoside], 8.9 µM. For `O=C(C=Cc1ccc(O)c(O)c1)OCC1OC(Oc2c(O)cc3oc(-c4ccc(O)c(O)c4)c(O)c(=O)c3c2O)C(O)C(O)C1O` [Compound 1, quercetagetin-6-O-(6-O-caffeoyl-β-D-glucopyranoside)], the DPPH scavenging in series [1] is 89.1%. The molecule also displayed an IC50 against alpha-amylase of 10.1 µM. `CCCCCC(=O)OCC1OC(Oc2c(O)cc3oc(-c4ccc(O)c(O)c4)c(O)c(=O)c3c2O)C(O)C(O)C1O` (stereo not shown) [Compound 4, minutaside A] displayed an IC50 on alpha-amylase of 9.2 µM.

A word on the IC50: it is the concentration at which inhibition is half-maximal.
